Results: patent US20070061084A1, “Method, system, and knowledge repository for identifying a secondary metabolite from a microorganism” (Ecopia BioSciences, Inc., priority 2002, published 2007)
pKd: −log10 of the molar value. ≈ marks a conversion by molar mass, not a printed value.

Experiments:
[1] = target: T1, Angiotensin Converting Enzyme (Oryctolagus cuniculus, UniProt P12822); experiment: ACE enzyme inhibition assay (spectrometric quantitation of FAPGG); assay type: biochemical; settings: 10 μM in 1% DMSO; rabbit lung enzyme
T1 construct: ACE: Source: rabbit lung; from tissue; host or cells: rabbit lung
T1 sequence (P12822 34-1310): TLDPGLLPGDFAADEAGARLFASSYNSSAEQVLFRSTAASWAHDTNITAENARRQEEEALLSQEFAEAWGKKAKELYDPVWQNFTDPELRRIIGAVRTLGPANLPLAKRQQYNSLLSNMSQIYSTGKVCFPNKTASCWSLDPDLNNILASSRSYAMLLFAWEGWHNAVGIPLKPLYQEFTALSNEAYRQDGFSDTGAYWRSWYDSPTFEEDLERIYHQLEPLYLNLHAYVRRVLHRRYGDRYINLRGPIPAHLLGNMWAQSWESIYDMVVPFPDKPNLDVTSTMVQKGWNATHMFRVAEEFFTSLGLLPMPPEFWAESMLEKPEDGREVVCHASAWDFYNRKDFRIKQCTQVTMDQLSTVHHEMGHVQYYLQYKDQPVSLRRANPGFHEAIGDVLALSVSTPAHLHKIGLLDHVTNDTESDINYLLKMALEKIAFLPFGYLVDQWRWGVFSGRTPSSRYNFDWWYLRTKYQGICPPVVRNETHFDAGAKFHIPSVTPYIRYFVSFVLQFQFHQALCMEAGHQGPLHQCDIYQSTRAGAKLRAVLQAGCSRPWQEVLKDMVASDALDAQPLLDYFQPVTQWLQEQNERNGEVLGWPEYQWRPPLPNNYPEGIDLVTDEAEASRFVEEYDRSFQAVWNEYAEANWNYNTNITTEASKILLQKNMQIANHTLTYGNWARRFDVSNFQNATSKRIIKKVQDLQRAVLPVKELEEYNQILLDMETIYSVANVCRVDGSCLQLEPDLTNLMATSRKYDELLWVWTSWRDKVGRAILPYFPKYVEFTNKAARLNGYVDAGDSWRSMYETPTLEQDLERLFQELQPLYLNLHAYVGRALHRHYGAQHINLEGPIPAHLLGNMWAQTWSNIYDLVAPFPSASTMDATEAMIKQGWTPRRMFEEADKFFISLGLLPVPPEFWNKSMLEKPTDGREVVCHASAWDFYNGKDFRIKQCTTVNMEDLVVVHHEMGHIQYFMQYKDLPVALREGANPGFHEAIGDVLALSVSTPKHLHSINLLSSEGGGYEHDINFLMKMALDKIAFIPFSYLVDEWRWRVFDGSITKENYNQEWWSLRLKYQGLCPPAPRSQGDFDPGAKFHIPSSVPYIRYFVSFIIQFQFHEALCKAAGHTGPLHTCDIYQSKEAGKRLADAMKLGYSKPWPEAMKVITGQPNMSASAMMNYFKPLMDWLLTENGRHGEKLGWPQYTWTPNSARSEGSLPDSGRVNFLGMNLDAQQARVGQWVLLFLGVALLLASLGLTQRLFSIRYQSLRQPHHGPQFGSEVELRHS

[2] = target: T2, Protein Serine/Threonine Kinase MEK1 (Oryctolagus cuniculus, UniProt P29678); experiment: MEK1 enzyme inhibition assay (Elisa quantitation of MBP-P); assay type: biochemical; settings: 10 μM in 1% DMSO; rabbit recombinant E. coli
T2 construct: made in house; host or cells: E. coli
T2 sequence (P29678 whole entry): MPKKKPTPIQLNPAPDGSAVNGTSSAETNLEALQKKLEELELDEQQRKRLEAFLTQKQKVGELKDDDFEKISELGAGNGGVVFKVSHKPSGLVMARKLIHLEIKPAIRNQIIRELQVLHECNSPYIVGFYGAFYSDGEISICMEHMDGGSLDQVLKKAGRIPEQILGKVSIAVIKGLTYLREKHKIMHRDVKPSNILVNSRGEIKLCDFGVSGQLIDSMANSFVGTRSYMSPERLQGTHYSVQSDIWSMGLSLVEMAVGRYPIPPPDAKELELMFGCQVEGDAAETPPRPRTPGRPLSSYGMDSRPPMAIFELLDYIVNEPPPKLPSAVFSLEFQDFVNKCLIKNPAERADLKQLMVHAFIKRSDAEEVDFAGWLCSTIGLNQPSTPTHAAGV

[3] = system: Saccharomyces cerevisiae FHCRC 50514; experiment: Disk diffusion assay, antifungal bioactivity; assay type: cell-based; settings: 37° C., 24 hours
Experimental: Antifungal bioactivity of Compound 1 (0506), in comparison to Amphotericin B, against Saccharomyces cerevisiae FHCRC 50514 was determined using a disk diffusion assay. Such an assay is commonly used to reveal activity of antifungal drugs against fungi (Wong G K, Griffith S, Kojima I and Demain A L, J. Antibiotics, 51(5): 487-491, 1998).
Inoculum (100 μL) was added to 100 mL of RPMI agar (kept at 55° C.) to give a final suspension of about 1×10^5 CFU/mL, and poured into 150 mm Petri dishes. Plates were used immediately upon setting of the agar.
Compound 1 (0506) was diluted in DMSO to a concentration of 3.2 mg/mL. A 20 μL sample (64 μg) was deposited on the agar surface of prepared plates. Amphotericin solution in DMSO (5 mg/mL; 10 μL; 50 μg) was also deposited, in a separate location, on the agar surface. A negative control (10 μL of stock solution) was also deposited in a separate location on the surface of the agar. The plates were incubated at 37° C. for 24 hours.

[4] = target: T3, Adenosine A3 Receptor (Homo sapiens, UniProt P0DMS8); experiment: Adenosine A3 radioligand binding assay; parameters: expressed in transfected cells; host or cells: CHO-K1 cells; settings: 10 μM in 1% DMSO; human recombinant CHO-K1 cells; negative value = stimulation of binding
T3 sequence (P0DMS8 1-318): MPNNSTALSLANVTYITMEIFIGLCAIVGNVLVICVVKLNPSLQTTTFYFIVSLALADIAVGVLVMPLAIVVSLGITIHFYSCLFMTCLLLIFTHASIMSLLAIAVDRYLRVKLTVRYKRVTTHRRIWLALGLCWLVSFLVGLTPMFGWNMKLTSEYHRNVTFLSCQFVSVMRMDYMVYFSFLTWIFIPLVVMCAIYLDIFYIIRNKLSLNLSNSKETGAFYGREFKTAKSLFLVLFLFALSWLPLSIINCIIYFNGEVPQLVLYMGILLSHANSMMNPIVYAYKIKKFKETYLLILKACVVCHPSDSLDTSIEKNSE

[5] = system: Saccharomyces cerevisiae Δpdr1/pdr3/erg6 (FHCRC 50514); experiment: Broth dilution antifungal susceptibility (NCCLS M27A), MIC; settings: 48 h, read-out: minimum inhibitory concentration (MIC)
[6] = target: T3, Adenosine A3 Receptor; settings: radioligand, historical value; cited from earlier work
[7] = system: Candida indicators; experiment: Bioactivity screen of HPLC/MS fractions of organism 100 extracts; assay type: cell-based; settings: compound of mass 1113 Da from organism 100 extracts
Experimental: An extract containing the putative polyene was obtained from organism 100 using a metabolomic approach to identify conditions under which the product of locus 100C was expressed. This approach obtains analytical measurement of all low molecular weight metabolites in a given organism at a specific time when grown under specific culture conditions. Organism 100 was grown in 48 different media, namely AA, AB, AC, BA, CA, CB, CI, DA, DY, DZ, EA, ES, ET, FA, GA, IB, JA, KA, KE, LA, MA, MC, MU, NA, NE, NF, NG, OA, PA, PB, QB, RA, RB, RC, RM, SF, SP, TA, VA, VB, WA, WS, XA, YA, ZA. Metabolites were extracted from whole cell cultures by adding of an equal volume of methanol. After removal of solid debris, the extract was concentrated and injected into an HPLC/MS system in which the metabolites were analyzed to obtain UV and mass data and purified fractions are collected in 96-well plates and assayed for multiple activities including antibiotic activity against gram-positive and gram-negative bacteria, and fungi.
Finally, the extracts generated by growth of organism 100 under each of the 48 media were analyzed for metabolites having physical, chemical and biological characteristics of polyenes. […]

For `CNC(CCCN(O)C(=O)C(CO)NC(=O)C(N)CCCN(C=O)C(=N)N)C(=O)NC(CO)C(=O)NC(CO)C(=O)NC(CCC(N)=O)C(=O)O` (stereo not drawn) [Compound 1 (0506)], the inhibition at 10 µM [1] was 50%, the inhibition at 10 µM [2] was 63% and the “zone of inhibition (diameter)” value ([3]; at 64 μg deposited on agar) was 36.4 mm. The inhibition at 10 µM [4] was -101%.

Work on `C/C=C(\C)C(O)C(C)/C=C/C=C(\C)CCC(O)CC1=C(C)C(=O)C(C)(O)O1` (stereo not drawn) [Compound 2] yielded an MIC [5] of 64 µg/mL (≈ 169 µM).

In the case of `COc1cc2nc(N3CCN(C(=O)c4ccco4)CC3)nc(N)c2cc1OC` [[H3] Prazosin, Prazosin], the pKd [6] is given as 9.54.

`OC(Cn1cncn1)(Cn1cncn1)c1ccc(F)cc1F` [Fluconazole, reference compound] gave an MIC [5] of 0.25 to 0.5 µg/mL (≈ 0.816 to 1.63 µM).

With `C[C@@H]1[C@H](O)[C@@H](C)/C=C/C=C/C=C/C=C/C=C/C=C/C=C/[C@H](O[C@@H]2O[C@H](C)[C@@H](O)[C@H](N)[C@@H]2O)C[C@@H]2O[C@](O)(C[C@@H](O)C[C@@H](O)[C@H](O)CC[C@@H](O)C[C@@H](O)CC(=O)O[C@H]1C)C[C@H](O)[C@H]2C(=O)O` [Amphotericin B, reference compound] the “zone of inhibition (diameter)” value ([3]; at 50 μg deposited on agar) was 23.9 mm.

With `CC1/C=C/C=C/C=C/C=C/C=C/C=C/C=C/C(OC2O[C@H](C)C(O)[C@H](N)C2O)CC2OC(O)(CC(O)CC(O)CC(O)CC(O)C[C@H](O)CC(O)CC(=O)OC1C(C)CCC(O)CC(=O)c1ccc(N)cc1)CC(O)C2C(=O)O` (stereo partly drawn) [ayfactin] the antifungal activity [7] was “antifungal activity”.
